Laboratory results: patent publication US20210395210A1, “INHIBITION OF BACTERIAL CHAPERONIN SYSTEMS” (THE TRUSTEES OF INDIANA UNIVERSITY, priority 2018, published 2021)

Target: T1, native MDH (Sus scrofa, UniProt P00346)
T1 construct: soluble pig heart MDH from Roche, product #10127248001; purchased Roche 10127248001; host or cells: pig heart
T1 sequence (P00346 25-338): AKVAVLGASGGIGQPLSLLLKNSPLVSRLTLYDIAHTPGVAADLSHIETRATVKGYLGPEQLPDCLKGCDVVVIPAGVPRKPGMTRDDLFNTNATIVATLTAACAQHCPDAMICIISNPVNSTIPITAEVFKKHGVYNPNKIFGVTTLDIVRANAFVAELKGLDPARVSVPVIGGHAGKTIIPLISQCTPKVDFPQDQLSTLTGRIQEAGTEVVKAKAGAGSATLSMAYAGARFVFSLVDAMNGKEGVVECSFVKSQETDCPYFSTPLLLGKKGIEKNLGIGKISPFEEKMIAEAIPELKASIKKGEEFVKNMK
Test: Counter-screen for inhibition of native MDH enzymatic activity
Assay type: biochemical, pig
Protocol: Reagent Preparations & Assay Protocol: This assay was performed as described above for the GroEL/ES-dMDH refolding assay; however, the assay protocol differed in the sequence of compound addition to the assay plates. The refolding reactions were allowed to proceed for 45 min at 37° C. in the absence of test compounds (complete refolding of MDH occurs), then quenched with the EDTA stock. Compounds were then pin-transferred into the plates after the EDTA quenching step; thus, compounds effects are only possible by inhibiting the fully-refolded MDH reporter substrate. […] A340 nm measurements were recorded at 0.5 minutes (start point) and at successive time points until the amount of NADH consumed reached ˜90% (end point, generally between 20-35 minutes). Compounds were tested in 8-point, 3-fold dilution series (62.5 μM to 29 nM during the reporter reaction) in clear, flat-bottom 384-well microtiter plates. DMSO was used as a negative control, and previously discovered native MDH inhibitors were used as positive controls. […] Results presented represent the averages of IC50 values obtained from at least quadriplicate (duplicate of duplicate) replicates.

Work on O=C(Nc1ccccc1)c1ccccc1 [Compound 28, N-Phenylbenzamide] yielded an IC50 (Biochemical Assay IC50 Native MDH Reporter) of over 63 µM and an IC50 (log(IC50) Native MDH Reporter, log of IC50 (μM scale), with standard deviation) of over 63.1 µM.
